Reference: patent US9296691B2, “Inhibitors of p75 receptor and their uses” (Horacio Uri Saragovi, priority 2010, dated 2016)

Key:
[1] = test system: retinal ganglion cells (RGCs); assay: ON axotomy model, quantification of surviving RGCs (fluorogold labeled); format: in vivo; settings: rat ON axotomy, one intravitreal injection 3 μg, day 14; contralateral normal eye = 100%; control axotomy 10%
Procedure: Wistar rats (female, 250-300 g; Charles River) were kept in a 12 hours dark-light cycle with food and water ad libitum. All animal manipulations were performed between 9 AM and 12 AM. Deep anesthesia was used during cauterization (induction of glaucoma), ON transection, fluorogold labeling, intraocular injection procedures, Optical Coherence Tomography measurements, and euthanasia (ketamine, xylazine, acepromazine injected intraperitoneally: 50/5/1 mg/kg, as per IACUC recommendations). For measuring IOP, light anesthesia was used (a gas mixture of Oxygen, 2% isofluorane mixture, at a rate of 2.5 liter/min, as per IACUC recommendations).
The ON axotomy model in the rat (Bai et al., 2010a) was used. […]
(§1) For studies in the glaucoma animal model the injections were performed at days 14 and 21 after cauterization. […] Thus, in this paradigm there is pre-existing damage for 14 days before treatment (measured at ˜8% RGC death (Shi et al., 2007; Shi et al., 2008)); and the treatments require long-lived efficacy in the constant presence of retinal stress due to high IOP. […]
Quantification of labeled RGCs was performed as reported (Shi et al., 2007; Shi et al., 2008). […] Pictures for each freshly flat-mounted retina were taken using a Zeiss fluorescence microscope (Carl Zeiss Meditec, Jena, Germany), with 12 pictures/retina at 20× magnification. […]

[2] = test system: NGI (NFL-GCL-IPL) retinal layers; assay: ON axotomy model, retinal NGI thickness by FD-OCT; format: in vivo; settings: rat ON axotomy, 3 μg intravitreal immediately after axotomy, days 11 and 14, versus untreated axotomy
Procedure: Antagonists of p75NTR prevented loss of retinal structure after ON axotomy. The relative in vivo efficacy for I-B and LM-24 was tested using the ON axotomy model. A quantitative non-invasive structural endpoint, FD-OCT, was performed in the same animal over time to measure the integrity of the neuronal layers. We quantified the axons and fibers of the RGCs that contribute to the thickness of the Nerve Fiber Layer (NFL), the Ganglion Cell Layer (GCL), and the Inner Plexiform Layer (IPL), herein termed NGI. Maintenance of NGI structure correlates with RGC health (Bai et al., 2010a).
Wistar rats (female, 250-300 g; Charles River) were kept in a 12 hours dark-light cycle with food and water ad libitum. All animal manipulations were performed between 9 AM and 12 AM. […]
FD-OCT is a non-invasive method that allows time-kinetic studies in the same animal. […] In each B-scan the thickness of the NFL-GCL-IPL (NGI) was measured at four adjacent points at a distance 1.5 mm from the ON head. […]
as §1

[3] = test system: TNF-α; assay: Glaucoma model, retinal TNF-α by western blot; format: in vivo, rat; settings: intravitreal injection at glaucoma day 14, measured 3 and 5 days later
Procedure: (§2) After 14-days of glaucoma eyes were injected intravitreally with p75NTR antagonists, and the levels of TNF-α and α2M were measured three days later (e.g. day 17 of glaucoma) and five days later (e.g. day 19 of glaucoma) (FIG. 3A).
(§3) Both retinas of each animal were detergent solubilized, and studied in independent gels standardized to loading control. The ratio of the glaucoma eye ±treatment versus the normal contralateral eye was calculated, and results were averaged ±sem, n=3 animals per group. In glaucoma, all drug treatments were done at day 14 of hypertension. In one group the retinas were harvested at day 17 of glaucoma (3 days after intraocular injection) and in the other group the retinas were harvested at day 19 of glaucoma (5 days after intraocular injection). Normal eyes treated with NGF-A were collected in the indicated days. After SDS-PAGE and western transfer, membranes were immunoblotted with rabbit polyclonal antibodies against TNF-α (Preprotech) or α2M (Santa Cruz) at a 1:3000 dilution. Goat anti-rabbit secondary antibodies conjugated to horseradish peroxidase (Sigma) were used at a 1:10,000 dilution. Loading was controlled with antibodies to β-actin (Sigma). For digital quantification, membranes were scanned and analyzed using ImageJ software.

[4] = test system: α2M; assay: Glaucoma model, retinal α2M by western blot; format: in vivo, rat; settings: intravitreal injection at glaucoma day 14, measured 3 and 5 days later
Procedure: as §2, §3

## CC(C)NC(=O)N(C(=O)Cn1cnc2c1c(=O)n(C)c(=O)n2C)C(C)C [I-B, 1,3-Diisopropyl-1-[2-(1,3-dimethyl-2,6-dioxo-1,2,3,6-tetrahydro-purin-7-yl)-acetyl]-urea]
[1]
  RGCs surviving: 37%
[2]
  preservation of NGI thickness (FD-OCT): significant preservation of the NGI thickness
[3]
  TNF-α level in glaucomatous retina, fold-change versus normal retina: time-dependent inhibition
[4]
  α2M level in glaucomatous retina, fold-change versus normal retina: time-dependent inhibition
